The numbers were not newly measured in patent US9737644B2, “Medical device coatings” (TYRX, Inc., priority 2010, dated 2017), which cites them from elsewhere.

This data set has as its system myofibroblast formation. The note with it: animal studies, Ajmal et al. (2003).

On to `O=S(=O)([O-])CCS.[Na+]` [Mesna, sodium 2-mercaptoethane sulfonate], for which the myofibroblast formation entry is “diminish myofibroblast formation”.
